Laboratory results published in patent US7741350B1 (Cara Therapeutics, Inc., priority 2009, dated 2010).
Read-outs that look alike come from different tables or passages of the source.

Legend:
[1] = target: human CB1 receptor (hCB1) (Homo sapiens, UniProt P21554); assay: cAMP assay at human CB1 receptor; assay type: cell-based; conditions: hCB1R; maximum measurable range 30 μM; read-out: EC50 (Potency at Human CB1 determined by cAMP Assay)
Description: The ability of each of the compounds to act as agonists or inverse agonists at human CB2 and CB1 receptors (hCB2, hCB1, respectively) and at the rat CB2 receptor (rCB2) was determined by measuring changes in intracellular cyclic AMP (cAMP) levels as described in U.S. Pat. No. 7,517,874.
TR-FRET was measured using a 330-380 nm excitation filter, 615 nm and 665 nm emission filters, dichroic minor 380 nm and Z=10 mm. cAMP concentrations in each well were back-calculated from a cAMP standard curve run concurrently during each assay. Each plate contained 16 wells of forskolin stimulated cells and 16 wells of forskolin plus 1 μM CP55,940-treated cells. Concentrations of cAMP were expressed as a percent of the difference of these two groups of wells. Concentration-response data including EC50 (the concentration of compound producing 50% of the maximal response) and intrinsic activity (the percent maximal activation compared to full activation by CP55, 940) were determined using a four-parameter non-linear regression algorithm (CambridgeSoft Bioassay).

[2] = target: human CB2 receptor (hCB2) (Homo sapiens, UniProt P34972); assay: cAMP assay at human CB2 receptor; assay type: cell-based; conditions: hCB2R, maximum measurable range 30 μM
Description: TR-FRET was measured using a 330-380 nm excitation filter, 615 nm and 665 nm emission filters, dichroic minor 380 nm and Z=10 mm. cAMP concentrations in each well were back-calculated from a cAMP standard curve run concurrently during each assay. Each plate contained 16 wells of forskolin stimulated cells and 16 wells of forskolin plus 1 μM CP55,940-treated cells. Concentrations of cAMP were expressed as a percent of the difference of these two groups of wells.

[3] = read-out: EC50 (Potency at Human CB2 determined by cAMP Assay)
[4] = EC50 (Potency at Human CB2 determined by cAMP Assay)

Chain of human CB1 receptor (hCB1) (P21554 whole entry): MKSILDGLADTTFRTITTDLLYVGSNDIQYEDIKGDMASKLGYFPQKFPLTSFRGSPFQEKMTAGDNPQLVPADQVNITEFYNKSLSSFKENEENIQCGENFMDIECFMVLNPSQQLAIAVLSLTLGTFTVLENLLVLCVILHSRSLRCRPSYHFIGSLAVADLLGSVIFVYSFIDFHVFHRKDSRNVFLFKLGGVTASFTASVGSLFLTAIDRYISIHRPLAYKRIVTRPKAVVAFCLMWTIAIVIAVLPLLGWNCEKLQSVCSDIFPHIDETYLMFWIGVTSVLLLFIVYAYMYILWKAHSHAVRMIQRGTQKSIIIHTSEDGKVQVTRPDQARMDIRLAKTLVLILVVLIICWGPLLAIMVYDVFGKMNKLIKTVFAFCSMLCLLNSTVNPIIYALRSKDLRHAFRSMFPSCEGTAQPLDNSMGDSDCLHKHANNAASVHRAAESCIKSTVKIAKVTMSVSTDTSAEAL
Chain of human CB2 receptor (hCB2) (P34972 whole entry): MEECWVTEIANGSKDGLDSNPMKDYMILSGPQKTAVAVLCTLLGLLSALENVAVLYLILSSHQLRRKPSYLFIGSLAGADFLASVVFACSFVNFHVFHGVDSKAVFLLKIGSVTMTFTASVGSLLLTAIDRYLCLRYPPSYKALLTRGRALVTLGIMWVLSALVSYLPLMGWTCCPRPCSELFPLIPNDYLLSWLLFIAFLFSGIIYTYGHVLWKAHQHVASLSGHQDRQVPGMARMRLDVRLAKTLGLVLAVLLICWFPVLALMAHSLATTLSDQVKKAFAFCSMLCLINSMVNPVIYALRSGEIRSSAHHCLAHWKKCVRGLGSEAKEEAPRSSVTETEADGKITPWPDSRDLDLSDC

Q: `CNC(=O)[C@@H](NC(=O)n1nc(-c2cc(C(F)(F)F)ccc2F)c2c1CCNC2)C(C)(C)C` [Compound 58, (S)—N-(3,3-dimethyl-1-(methylamino)-1-oxobutan-2-yl)-3-(2-fluoro-5-(trifluoromethyl)phenyl)-4,5,6,7-tetrahydro-1H-pyrazolo[4,3-c]pyridine-1-carboxamide] was tested. Which EC50 [1] did it give?
A: < 1000 nM

Q: What about the EC50 [2, 3] of the same compound?
A: > 1000 nM

Q: Which results are given for `CCN1CCc2c(c(-c3cc(F)ccc3F)nn2C(=O)N[C@H](C(=O)O)C(C)(C)C)C1` [Compound 82, (S)-2-(3-(2,5-difluorophenyl)-5-ethyl-4,5,6,7-tetrahydro-1H-pyrazolo[4,3-c]pyridine-1-carboxamido)-3,3-dimethylbutanoic acid]?
A: EC50 [1]: > 30000 nM; EC50 [2, 4]: > 30000 nM

Q: Which EC50 [1] does the source give for `CCOC(=O)N1CCN(C(=O)[C@@H](NC(=O)n2nc(-c3cc(F)c(F)cc3F)c3c2CCN(C)C3)C(C)(C)C)CC1` [Compound 77, (S)-ethyl 4-(3,3-dimethyl-2-(5-methyl-3-(2,4,5-trifluorophenyl)-4,5,6,7-tetrahydro-1H-pyrazolo[4,3-c]pyridine-1-carboxamido)butanoyl)piperazine-1-carboxylate] here?
A: < 1000 nM

Q: What about the EC50 [2, 3] of the same compound?
A: > 1000 nM

Q: Which results are given for `CN1CCc2c(c(-c3cc(F)c(F)cc3F)nn2C(=O)N[C@H](C(=O)NCCCO)C(C)(C)C)C1` [Compound 80, (S)—N-(1-(3-hydroxypropylamino)-3,3-dimethyl-1-oxobutan-2-yl)-5-methyl-3-(2,4,5-trifluorophenyl)-4,5,6,7-tetrahydro-1H-pyrazolo[4,3-c]pyridine-1-carboxamide]?
A: EC50 [1]: < 1000 nM; EC50 [2, 3]: > 1000 nM

Q: What does the source list for `CNC(=O)[C@@H](NC(=O)n1nc(-c2ccc(F)c(F)c2)c2c1CCCCN2C)C(C)(C)C` [Compound 69, (S)-3-(3,4-difluorophenyl)-N-(3,3-dimethyl-1-(methylamino)-1-oxobutan-2-yl)-4-methyl-5,6,7,8-tetrahydropyrazolo[4,3-b]azepine-1(4H)-carboxamide]?
A: EC50 [1]: < 1000 nM; EC50 [2, 4]: < 1000 nM

Q: Which EC50 [1] does the source give for `CNC(=O)[C@@H](NC(=O)n1nc(-c2ccc(F)cc2)c2c1CCN(C)C2)C(C)(C)C` [Compound 54, (S)—N-(3,3-dimethyl-1-(methylamino)-1-oxobutan-2-yl)-3-(4-fluorophenyl)-5-methyl-4,5,6,7-tetrahydro-1H-pyrazolo[4,3-c]pyridine-1-carboxamide] here?
A: < 1000 nM

Q: And the EC50 [2, 4]?
A: < 1000 nM

Q: Which results are given for `CNC(=O)[C@@H](NC(=O)n1nc(-c2cc(F)c(F)cc2F)c2c1CCOC2)C(C)(C)C` [Compound 30, (S)—N-(3,3-dimethyl-1-(methylamino)-1-oxobutan-2-yl)-3-(2,4,5-trifluorophenyl)-6,7-dihydropyrano[4,3-c]pyrazole-1(4H)-carboxamide]?
A: EC50 [1]: < 1000 nM; EC50 [2, 4]: < 1000 nM

Q: For `CC(C)C[C@H](NC(=O)n1nc(-c2ccc(F)c(F)c2)c2c1CCN(C)C2)C(N)=O` [Compound 49, (S)—N-(1-amino-4-methyl-1-oxopentan-2-yl)-3-(3,4-difluorophenyl)-5-methyl-4,5,6,7-tetrahydro-1H-pyrazolo[4,3-c]pyridine-1-carboxamide], which EC50 [1] is on record?
A: < 1000 nM

Q: What about the EC50 [2, 4] of the same compound?
A: < 1000 nM

Q: How did the EC50 [1] turn out when `CC(C)(C)[C@@H](CO)NC(=O)n1nc(-c2ccc(F)c(F)c2)c2c1CCCC2` [Compound 51, (S)-3-(3,4-difluorophenyl)-N-(1-hydroxy-3,3-dimethylbutan-2-yl)-4,5,6,7-tetrahydro-1H-indazole-1-carboxamide] was run?
A: < 1000 nM

Q: What about the EC50 [2, 4] of the same compound?
A: < 1000 nM

Q: Which results are given for `CNC(=O)[C@@H](NC(=O)n1nc(-c2ccc(F)c(F)c2)c2c1CN(C)CC2)C(C)(C)C` [Compound 61, (S)-3-(3,4-difluorophenyl)-N-(3,3-dimethyl-1-(methylamino)-1-oxobutan-2-yl)-6-methyl-4,5,6,7-tetrahydro-1H-pyrazolo[3,4-c]pyridine-1-carboxamide]?
A: EC50 [1]: < 1000 nM; EC50 [2, 4]: < 1000 nM
